Test: xn = mol fraction of the nth substance listed

OC1CCCCC1 + OCCO
viscosity [mPa·s], 100 kPa
Conditions	293.15 K	298.15 K	303.15 K	308.15 K	313.15 K	318.15 K
x1 = 0.0097	20.9	16.96	13.79	11.32	9.626	7.932
x1 = 0.0396	21.26	17.11	13.94	11.35	9.765	8.069
x1 = 0.058	21.37	17.21	14.04	11.44	9.849	8.139
x1 = 0.088	21.54	17.34	14.16	11.54	9.965	8.26
x1 = 0.1001	21.6	17.4	14.2	11.58	10	8.294
x1 = 0.1963	21.79	17.59	14.34	11.66	10.09	8.427
x1 = 0.3051	21.94	17.71	14.45	11.76	10.19	8.481
x1 = 0.397	22.13	17.96	14.66	12.02	10.42	8.606
x1 = 0.4994	23.25	18.43	15.1	12.54	10.71	8.723
x1 = 0.5878	26.46	20.22	16.33	12.82	11.32	9.179
x1 = 0.6994	31.25	23.24	18.88	14.44	12.15	9.912
x1 = 0.7971	38.27	28.43	22.87	17.78	14.34	11.34
x1 = 0.8978	53.55	38	28.77	22.38	17.93	13.99

CC(=O)CC(C)(C)O + OCc1ccccc1
298.15 K, 101 kPa
Conditions	viscosity [mPa·s]
x2 = 0.0518	2.886
x2 = 0.1087	3.021
x2 = 0.1705	3.199
x2 = 0.2406	3.41
x2 = 0.3325	3.67
x2 = 0.3445	3.703
x2 = 0.4344	3.968
x2 = 0.5378	4.295
x2 = 0.6345	4.596
x2 = 0.7171	4.831
x2 = 0.7554	4.935
x2 = 0.8122	5.096
x2 = 0.878	5.303
x2 = 0.9123	5.42
x2 = 0.9146	5.43

OC1CCCCC1 + Oc1ccccc1
298.15 K, 101.3 kPa
Conditions	viscosity [mPa·s]
x1 = 0.79	27.6
x1 = 0.89	37.1

CCC(N)=O + [Al+3].[Cl-].[Cl-].[Cl-]
viscosity [mPa·s], 101 kPa
Conditions	x2 = 0.5	x2 = 0.52	x2 = 0.57	x2 = 0.6	x2 = 0.63
313 K	32.65	25.38	23.95	24.65	25.32
323 K	23.49	19.12	17.93	18.32	18.7

C1CCCCCCC1 + c1ccccc1
303.15 K, 101 kPa
Conditions	viscosity [mPa·s]
x1 = 0.1002	0.5993
x1 = 0.2	0.6484
x1 = 0.2967	0.7078
x1 = 0.3983	0.788
x1 = 0.4982	0.8861
x1 = 0.6999	1.179
x1 = 0.8961	1.654

CCCCC + c1ccccc1
298.15 K, 101.33 kPa
Conditions	viscosity [mPa·s]
x2 = 0.1622	0.241
x2 = 0.3515	0.274
x2 = 0.4439	0.295
x2 = 0.5608	0.328
x2 = 0.6851	0.375
x2 = 0.8001	0.434
x2 = 0.9056	0.505

CCCCCCCO + c1ccccc1
viscosity [mPa·s], 100 kPa
Conditions	x2 = 0.0864	x2 = 0.1561	x2 = 0.2397	x2 = 0.3469	x2 = 0.4396	x2 = 0.5661	x2 = 0.6446	x2 = 0.7517	x2 = 0.8493	x2 = 0.9561
293.15 K	5.514	4.58	3.709	2.802	2.132	1.412	1.117	0.875	0.766	0.681
303.15 K	3.992	3.302	2.668	2.018	1.568	1.053	0.859	0.703	0.625	0.573
313.15 K	2.947	2.439	1.973	1.501	1.172	0.822	0.679	0.573	0.525	0.498
323.15 K	2.279	1.918	1.573	1.203	0.942	0.665	0.556	0.479	0.442	0.437

CS(C)=O + c1ccccc1
viscosity [mPa·s], 101.3 kPa
Conditions	x1 = 0.1043	x1 = 0.2048	x1 = 0.3059	x1 = 0.4069	x1 = 0.5105	x1 = 0.6085	x1 = 0.7063	x1 = 0.8049	x1 = 0.9029
298.15 K	0.669	0.743	0.829	0.923	1.036	1.169	1.317	1.492	1.712
303.15 K	0.622	0.69	0.766	0.853	0.955	1.071	1.207	1.367	1.562
308.15 K	0.581	0.643	0.714	0.796	0.884	0.99	1.111	1.258	1.426

CCC(N)=O + c1ccncc1
298.15 K, 101 kPa
Conditions	viscosity [mPa·s]
x1 = 0.0852	1.047
x1 = 0.1462	1.208
x1 = 0.2521	1.615

Reference: the CheMixHub viscosity set
